{
  "source": "patent EP4147700A1",
  "about": "“N-(4-(AZAINDAZOL-6-YL)-PHENYL)-SULFONAMIDES FOR USE IN THE TREATMENT OF SICKLE CELL DISEASE” (LQT Therapeutics Inc., priority 2021, dated 2023)",
  "key": {"[1]": {"system": "CD34+ cells from patients with sickle cell disease", "conditions": "for F-cell (HbF+) frequency in enucleated GlyA+ cells: CD34+ cells from patients with sickle cell disease, compared to control (DMSO) (FIG. 4A)", "description": "To measure the effect of Compound 346 on fetal hemoglobin induction in CD34+ cells from patients with sickle cell disease, circulating CD34+ progenitor cells were isolated from total blood obtained from sickle cell patients, by performing a positive selection for CD34+ cells with magnetic beads (Miltenyi Biotec). Purified CD34+ cells were differentiated for 14 days. After differentiation, cells were fixed and stained with CD235a, CD71 and fetal hemoglobin antibodies for flowcytometry analysis."}, "human CD34+ cells": {"system": "human CD34+ cells", "conditions": "for F-cell (HbF+) frequency in enucleated GlyA+ cells / fold change in fetal hemoglobin expression: 14 days of differentiation; for F-cell (HbF+) frequency in enucleated GlyA+ cells: compared to control (DMSO) (FIG. 3A); for fold change in fetal hemoglobin expression: human CD34+ cells, compared to control (Vehicle as DMSO) (FIG. 3B)", "quoted_text": "Mobilized CD34+ Human Stem/Progenitor Cells (HSPC) from healthy individuals were cultured for 3 days in a maintenance media consisting of X-VIVO 10 (VWR), 100 U/mL penicillin-streptomycin (ThermoFisher), 2mM L-glutamine (Fisher Scientific), 100 ng/mL Recombinant Human Stem Cell Factor (SCF), 100 ng/mL Recombinant Human Thrombopoietin (TPO) and 100 ng/mL Recombinant Human Flt-3 Ligand (Flt-3L) (all three from ThermoFisher). Cells were differentiated into erythroid cells using a three-step differentiation protocol developed by the Luc Douay group (Giarratana et al. 2005). In brief, CD34+ cells were cultured for 7 days in Step 1 media, consisting of Iscove's modified Dulbecco's medium (IMDM) (ThermoFisher) supplemented with 1X GlutaMAX, 100 U/mL penicillin-streptomycin (ThermoFisher), 5% human AB+plasma, 330 ug/mL human holo-transferrin, 10 ug/mL human insulin, 2 U/mL heparin, 1 uM/mL hydrocortisone (Sigma-Aldrich), 3 U/mL recombinant human erythropoietin (EPO) (ThermoFisher), 100 ng/mL SCF (ThermoFisher) and 5 ng/mL interleukin 3 (IL-3) (SigmaAldrich). On day 7, cells were transferred to step 2 media, a step 1 media without hydrocortisone and IL-3 and cultured for 3-4 days. Then cells were cultured for 8-9 days in step 3 media, a step 2 media without SCF. […] To determine the percentage of HbF-positive cells (F-cells), differentiated cells were fixed and permeabilized using a fixation kit (ThermoFisher). Cells were stained with PE-Cy7-conjugated anti-CD235 or PE-conjugated anti-CD71 antibodies. HbF levels were detected using Allophycocyanin (APC)-conjugated anti-HbF antibody (ThermoFisher). The acquisition of stained cells was performed on BD FACSCanto™ and the analysis was run using FlowJo™ Software.\nAfter 14 days of differentiation, cells were fixed and stained with CD235a, CD71 and fetal hemoglobin antibodies for flowcytometry analysis."}, "SGK1": {"biological_target": "T1, SGK1 (Homo sapiens, UniProt O00141)", "T1 construct": "endogenous in cells; host or cells: Mobilized human CD34+ HSPC from a healthy donor, day 11 of erythroid differentiation", "T1 sequence (O00141 1-431)": "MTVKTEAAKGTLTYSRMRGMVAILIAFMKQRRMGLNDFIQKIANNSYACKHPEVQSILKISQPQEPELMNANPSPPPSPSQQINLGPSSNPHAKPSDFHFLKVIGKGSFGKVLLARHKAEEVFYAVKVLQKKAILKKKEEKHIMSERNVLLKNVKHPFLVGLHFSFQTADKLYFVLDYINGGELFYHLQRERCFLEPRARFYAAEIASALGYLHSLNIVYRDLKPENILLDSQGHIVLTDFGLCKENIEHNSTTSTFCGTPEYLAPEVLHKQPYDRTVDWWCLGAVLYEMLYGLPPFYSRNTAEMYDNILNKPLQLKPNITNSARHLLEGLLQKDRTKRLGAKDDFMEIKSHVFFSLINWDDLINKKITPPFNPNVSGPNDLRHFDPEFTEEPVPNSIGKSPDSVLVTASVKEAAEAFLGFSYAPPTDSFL", "assay": "SGK1 target engagement: Western blot of SGK1 phosphorylation at Thr256 in CD34+ cells", "assay_type": "cell-based", "conditions": "CD34+ cells from a healthy donor, day 11 of differentiation, 1h after exposure (FIG. 5)", "protocol": "(§1) To verify SGK1 target engagement by Compound 346, CD34+ cells from a healthy donor were exposed to Compound 346 at the indicated dose (µM), harvested and lysed at the indicated time points. Phosphorylation of SGK1 at threonine 256 (Thr256) was assessed by Western blot using antibody anti-pSGK1 (Thr256) (Thermofisher) and anti-SGK1 (Cell Signaling). Human CD34+ cells, cells were collected on Day 11 of differentiation then exposed to Compound 346. According to the time course, cells were collected and lysed using RIPA buffer mixed with a phosphatase and protease inhibitors cocktail (Thermofisher). Sample protein concentrations were measured with the Pierce […] (ThermoFisher). The α-tubulin antibody (Cell Signaling) served as an internal control. Immunoreactive proteins were visualized by using an ECL® (enhanced chemiluminescence) detection system (BioRad). Optical density was measured with ImageJ software (National Institutes of Health, Bethesda, MD) and the ratio of phospho-SGK1 to total SGK1 was calculated, normalized on α-tubulin, and plotted based on the densitometry measurements. […] Furthermore, SGK1 downstream pathway activation was verified by measuring phosphorylation of FOXO3 at Serine 315, a direct target of activated SGK1. Quantification of FOXO3 activation was assessed by Western Blot using antibodies anti-pFOXO3 (Ser315) and anti-FOXO3 (Cell Signaling). […]"}, "FOXO3": {"system": "FOXO3", "assay": "SGK1 downstream pathway: Western blot of FOXO3 phosphorylation at Serine 315 in CD34+ cells", "assay_type": "cell-based, human", "conditions": "CD34+ cells from a healthy donor, day 11 of differentiation, 1-hour time point, densitometry (FIG. 5)", "protocol": "as §1"}, "sickle erythroid cells": {"system": "sickle erythroid cells", "assay": "Sickling assay under hypoxia (ImageStream flow cytometry) of 21-day differentiated erythroid cells", "assay_type": "cell-based, human", "conditions": "cells derived from CD34+ cells of sickle patients, 21 days of differentiation, 4 hours at 2% oxygen, compared to vehicle, p < 0.01 (FIG. 6)", "protocol": "To evaluate the effect of Compound 346 in sickle erythroid cells sickling, a sickling assay was conducted. […] Purified CD34+ cells were differentiated for 21 days. At the end of the differentiation, cells were incubated for 4 hours at 2% of oxygen in Hemox Buffer (Fisher Scientific) supplemented with 10mM Glutamine (Gibco) and 0.5% BSA (Sigma Aldrich). After exposure to hypoxia, cells were fixed with 25% of glutaraldehyde (Sigma Aldrich) and transferred to tubes for flowcytometry analysis, using a Amnis® ImageStream® flow cytometer to assess abnormal shaped cells. Cells were determined using RMS of brightfield image, and single cells using Area vs Aspect Ratio of brightfield image, and live cells were identified using a Live Dead NIR stain. Single living cells were analyzed using the following masking of the brightfield image: Skeleton (M1, Ch1, Thin), Object (M1, Ch1, Tight). Finally, the sickling factor was calculated using the following feature: Length_Skeleton (M1, CH1, Thin)/Width_(M1, Ch1, Tight). Cells with a sickle factor feature of 1.4 or higher were sickled. Cells with a sickle factor feature less than 1.4 were not sickled."}, "[2]": {"conditions": "CD34+ HSPC from healthy individuals"}},
  "data": [
    {"compound": "NC(=O)NO", "note": "[Hydroxyurea, hydroxyurea, reference compound]", "values": [
      {"measurement": "F-cell (HbF+) frequency in enucleated GlyA+ cells", "setting": "[1]", "result": "increase"},
      {"measurement": "F-cell (HbF+) frequency in enucleated GlyA+ cells", "setting": "human CD34+ cells; [2]", "result": "increases"},
      {"measurement": "fold change in fetal hemoglobin expression", "setting": "human CD34+ cells", "result": "1,5 fold"}
    ]},
    {"compound": "Cc1n[nH]c2nc(-c3ccc(NS(=O)(=O)c4cc(Cl)ccc4F)cc3)nc(OC3CCN(C(C)C)CC3)c12", "note": "[Compound 346]", "values": [
      {"measurement": "p-SGK1 (Thr256), ratio of phospho-SGK1 to total SGK1", "setting": "SGK1", "result": "decrease"},
      {"measurement": "phosphorylation of FOXO3 at Serine 315", "setting": "FOXO3", "result": "decrease"},
      {"measurement": "sickling of erythroid cells induced by hypoxia", "setting": "sickle erythroid cells", "result": "significantly protected from sickling"},
      {"measurement": "F-cell (HbF+) frequency in enucleated GlyA+ cells", "setting": "[1]", "result": "increasing"},
      {"measurement": "HbF+ fold change to control", "setting": "[1]; CD34+ cells from sickle cell patients, 14 days of differentiation, compared to control (Vehicle as DMSO) (FIG. 4B)", "result": 1.5, "unit": "fold"},
      {"measurement": "F-cell (HbF+) frequency in enucleated GlyA+ cells", "setting": "human CD34+ cells; [2]", "result": "increases"},
      {"measurement": "increase of HbF+ cells (HbF+ fold change to control)", "setting": "human CD34+ cells; CD34+ HSPC from healthy individuals, 21 days of differentiation, compared to DMSO (FIG. 2B)", "result": "about 1.5 fold"},
      {"measurement": "frequency of F-cells (HbF+)", "setting": "human CD34+ cells; CD34+ HSPC from healthy individuals, 21 days of differentiation, compared to vehicle (DMSO) (FIG. 2A)", "result": "increased"},
      {"measurement": "fold change in fetal hemoglobin expression", "setting": "human CD34+ cells", "result": "1,5 fold"}
    ]}
  ]
}
